From ChEMBL document CHEMBL1201862, “PubChem BioAssay data set” (2004)
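Results reflect a 48-hour exposure of cells in 96-well plates to compound at five concentrations. GI50 = concentration required for 50% inhibition of growth.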 Active and inactive are the calls of the source. No stated cut-off is given here; in the data, active = GI50 up to about 1.1 µM and inactive = higher.

What was measured:
Test in all cases: NCI anticancer screen, dose series, 48 h
786-0 = test system: 786-0
A498 = test system: A498
A549 = test system: A549
ACHN = test system: ACHN
CAKI-1 = test system: CAKI-1
CCRF-CEM = test system: CCRF-CEM
COLO 205 = test system: COLO 205
DU-145 = test system: DU-145
EKVX = test system: EKVX
HCC 2998 = test system: HCC 2998
HCT-116 = test system: HCT-116
HCT-15 = test system: HCT-15
HL-60 = test system: HL-60
HOP-62 = test system: HOP-62
HT-29 = test system: HT-29
Hs-578T = test system: Hs-578T
IGROV-1 = test system: IGROV-1
K562 = test system: K562
KM12 = test system: KM12
LOX IMVI = test system: LOX IMVI
M14 = test system: M14
MCF7 = test system: MCF7
MDA-MB-231 = test system: MDA-MB-231
MDA-MB-435 = test system: MDA-MB-435
MDA-N = test system: MDA-N
MOLT-4 = test system: MOLT-4
Malme-3M = test system: Malme-3M
NCI-H226 = test system: NCI-H226
NCI-H23 = test system: NCI-H23
NCI-H460 = test system: NCI-H460
NCI-H522 = test system: NCI-H522
NCI/ADR-RES = test system: NCI/ADR-RES
OVCAR-4 = test system: OVCAR-4
OVCAR-5 = test system: OVCAR-5
OVCAR-8 = test system: OVCAR-8
PC-3 = test system: PC-3
RPMI-8226 = test system: RPMI-8226
RXF 393 = test system: RXF 393
SF-268 = test system: SF-268
SF-295 = test system: SF-295
SF-539 = test system: SF-539
SK-MEL-28 = test system: SK-MEL-28
SK-MEL-5 = test system: SK-MEL-5
SK-OV-3 = test system: SK-OV-3
SN12C = test system: SN12C
SNB-19 = test system: SNB-19
SNB-75 = test system: SNB-75
SR = test system: SR
SW-620 = test system: SW-620
T47D = test system: T47D
TK-10 = test system: TK-10
U-251 = test system: U-251
UACC-257 = test system: UACC-257
UACC-62 = test system: UACC-62
UO-31 = test system: UO-31
HOP-92 = test system: HOP-92
OVCAR-3 = test system: OVCAR-3
SK-MEL-2 = test system: SK-MEL-2

For `COc1ccc(C2=CC(c3ccc4c(c3)OCO4)c3c(c4ccccc4oc3=O)O2)cc1OC` (stereo not given), the GI50 (786-0) was 1.13 µM (inactive), the GI50 (A498) was 0.91 µM (active) and the GI50 (A549) was 2.78 µM (inactive). For the same molecule, the GI50 (ACHN) was 1.5 µM (inactive), the GI50 (CAKI-1) was 1.1 µM (active) and the GI50 (CCRF-CEM) was 2.49 µM (inactive). For the same molecule, the GI50 (COLO 205) was 1.51 µM (inactive), the GI50 (DU-145) was 2.25 µM (inactive) and the GI50 (EKVX) was 4.16 µM (inactive). For the same molecule, the GI50 (HCC 2998) was 1.46 µM (inactive), the GI50 (HCT-116) was 0.824 µM (active) and the GI50 (HCT-15) was 0.546 µM. For the same molecule, the GI50 (HL-60) was 0.351 µM (active), the GI50 (HOP-62) was 1.44 µM (inactive) and the GI50 (HT-29) was 0.536 µM (active). For the same molecule, the GI50 (Hs-578T) was 1.65 µM (inactive), the GI50 (IGROV-1) was 0.743 µM (active) and the GI50 (K562) was 0.415 µM (active). The GI50 (KM12) was 1.76 µM (inactive), the GI50 (LOX IMVI) was 1.26 µM (inactive) and the GI50 (M14) was 3.54 µM (inactive). The GI50 (MCF7) was 0.454 µM (active), the GI50 (MDA-MB-231) was 4.02 µM (inactive) and the GI50 (MDA-MB-435) was 0.366 µM (active). For the same molecule, the GI50 (MDA-N) was 0.324 µM (active), the GI50 (MOLT-4) was 3.42 µM (inactive) and the GI50 (Malme-3M) was > 81.8 µM (inactive). For the same molecule, the GI50 (NCI-H226) was 0.546 µM (active), the GI50 (NCI-H23) was 2.51 µM (inactive) and the GI50 (NCI-H460) was 1.09 µM (active). The GI50 (NCI-H522) was 0.486 µM (active), the GI50 (NCI/ADR-RES) was 1.41 µM (inactive) and the GI50 (OVCAR-4) was 98.4 µM (inactive). For the same molecule, the GI50 (OVCAR-5) was 4.85 µM (inactive), the GI50 (OVCAR-8) was 3.53 µM (inactive) and the GI50 (PC-3) was 2.42 µM (inactive). The GI50 (RPMI-8226) was 2.64 µM (inactive), the GI50 (RXF 393) was 0.764 µM (active) and the GI50 (SF-268) was 5.07 µM (inactive). The GI50 (SF-295) was 0.374 µM (active), the GI50 (SF-539) was 0.69 µM (active) and the GI50 (SK-MEL-28) was > 55.2 µM (inactive). The GI50 (SK-MEL-5) was 0.766 µM (active), the GI50 (SK-OV-3) was 0.859 µM (active) and the GI50 (SN12C) was 5.56 µM (inactive). The GI50 (SNB-19) was 2.53 µM (inactive), the GI50 (SNB-75) was 0.51 µM (active) and the GI50 (SR) was 0.486 µM (active). The GI50 (SW-620) was 0.933 µM (active), the GI50 (T47D) was 0.685 µM (active) and the GI50 (TK-10) was 2.75 µM (inactive). For the same molecule, the GI50 (U-251) was 1.98 µM (inactive), the GI50 (UACC-257) was > 100 µM (inactive) and the GI50 (UACC-62) was 0.424 µM (active). The GI50 (UO-31) was 2.55 µM (inactive).

For `O=c1[nH]c(=O)n(COC(CO)CO)cc1-c1ccccc1`, the GI50 (786-0) was > 100 µM (inactive), the GI50 (A549) was > 100 µM (inactive) and the GI50 (ACHN) was > 100 µM (inactive). For the same molecule, the GI50 (CAKI-1) was > 100 µM (inactive), the GI50 (CCRF-CEM) was > 100 µM (inactive) and the GI50 (COLO 205) was > 100 µM (inactive). For the same molecule, the GI50 (DU-145) was > 100 µM (inactive), the GI50 (EKVX) was > 100 µM (inactive) and the GI50 (HCC 2998) was > 100 µM (inactive). The GI50 (HCT-116) was > 100 µM (inactive), the GI50 (HCT-15) was greater than 100 µM and the GI50 (HL-60) was > 100 µM (inactive). For the same molecule, the GI50 (HOP-62) was > 100 µM (inactive), the GI50 (HOP-92) was > 100 µM (inactive) and the GI50 (HT-29) was > 100 µM (inactive). The GI50 (Hs-578T) was > 100 µM (inactive), the GI50 (IGROV-1) was > 100 µM (inactive) and the GI50 (K562) was > 100 µM (inactive). The GI50 (KM12) was > 100 µM (inactive), the GI50 (LOX IMVI) was > 100 µM (inactive) and the GI50 (M14) was > 100 µM (inactive). For the same molecule, the GI50 (MCF7) was > 100 µM (inactive), the GI50 (MDA-MB-231) was > 100 µM (inactive) and the GI50 (MDA-MB-435) was > 100 µM (inactive). For the same molecule, the GI50 (MDA-N) was > 100 µM (inactive), the GI50 (MOLT-4) was > 100 µM (inactive) and the GI50 (Malme-3M) was > 100 µM (inactive). The GI50 (NCI-H23) was > 100 µM (inactive), the GI50 (NCI-H460) was > 100 µM (inactive) and the GI50 (NCI-H522) was > 100 µM (inactive). The GI50 (NCI/ADR-RES) was > 100 µM (inactive), the GI50 (OVCAR-3) was > 100 µM (inactive) and the GI50 (OVCAR-4) was > 100 µM (inactive). For the same molecule, the GI50 (OVCAR-5) was > 100 µM (inactive), the GI50 (OVCAR-8) was > 100 µM (inactive) and the GI50 (PC-3) was > 100 µM (inactive). For the same molecule, the GI50 (RPMI-8226) was > 100 µM (inactive), the GI50 (SF-268) was > 100 µM (inactive) and the GI50 (SF-295) was > 100 µM (inactive). For the same molecule, the GI50 (SK-MEL-28) was > 100 µM (inactive), the GI50 (SK-MEL-2) was > 100 µM (inactive) and the GI50 (SK-MEL-5) was > 100 µM (inactive). The GI50 (SK-OV-3) was > 100 µM (inactive), the GI50 (SN12C) was > 100 µM (inactive) and the GI50 (SNB-19) was > 100 µM (inactive). The GI50 (SNB-75) was > 100 µM (inactive), the GI50 (SR) was > 100 µM (inactive) and the GI50 (SW-620) was > 100 µM (inactive). For the same molecule, the GI50 (T47D) was > 100 µM (inactive), the GI50 (TK-10) was > 100 µM (inactive) and the GI50 (U-251) was > 100 µM (inactive). For the same molecule, the GI50 (UACC-257) was > 100 µM (inactive), the GI50 (UACC-62) was > 100 µM (inactive) and the GI50 (UO-31) was > 100 µM (inactive).

In the case of `COc1cc(NCc2ccc3nc(-c4ccccc4)c(N)nc3c2)cc(OC)c1OC`, the GI50 (786-0) is reported as 35.6 µM (inactive), the GI50 (A498) is reported as 23.3 µM (inactive) and the GI50 (A549) is reported as 30.8 µM (inactive). For the same molecule, the GI50 (ACHN) was 29.4 µM (inactive), the GI50 (CAKI-1) was 28.8 µM (inactive) and the GI50 (CCRF-CEM) was 31.6 µM (inactive). For the same molecule, the GI50 (COLO 205) was 18.8 µM (inactive), the GI50 (DU-145) was 36.6 µM (inactive) and the GI50 (EKVX) was 33.2 µM (inactive). The GI50 (HCC 2998) was 51.8 µM (inactive), the GI50 (HCT-116) was 18.1 µM (inactive) and the GI50 (HCT-15) was 28.7 µM. For the same molecule, the GI50 (HL-60) was 25.6 µM (inactive), the GI50 (HOP-62) was 43.8 µM (inactive) and the GI50 (HOP-92) was 12.5 µM (inactive). For the same molecule, the GI50 (HT-29) was 32.9 µM (inactive), the GI50 (IGROV-1) was 43.6 µM (inactive) and the GI50 (K562) was 41 µM (inactive). For the same molecule, the GI50 (KM12) was 26.5 µM (inactive), the GI50 (LOX IMVI) was 41.9 µM (inactive) and the GI50 (M14) was 18.4 µM (inactive). For the same molecule, the GI50 (MCF7) was 28.5 µM (inactive), the GI50 (MDA-MB-231) was 36 µM (inactive) and the GI50 (MDA-MB-435) was 22.3 µM (inactive). For the same molecule, the GI50 (MDA-N) was 27.5 µM (inactive), the GI50 (MOLT-4) was 23.3 µM (inactive) and the GI50 (Malme-3M) was 24.9 µM (inactive). For the same molecule, the GI50 (NCI-H226) was 27.5 µM (inactive), the GI50 (NCI-H23) was 21.4 µM (inactive) and the GI50 (NCI-H460) was 31.4 µM (inactive). The GI50 (NCI-H522) was 23.7 µM (inactive), the GI50 (NCI/ADR-RES) was 22.2 µM (inactive) and the GI50 (OVCAR-3) was 25.6 µM (inactive). The GI50 (OVCAR-4) was 29.3 µM (inactive), the GI50 (OVCAR-5) was > 100 µM (inactive) and the GI50 (OVCAR-8) was 27.7 µM (inactive). The GI50 (PC-3) was 28.2 µM (inactive), the GI50 (RXF 393) was 16 µM (inactive) and the GI50 (SF-268) was 34.8 µM (inactive). For the same molecule, the GI50 (SF-295) was 35.6 µM (inactive), the GI50 (SF-539) was 29.7 µM (inactive) and the GI50 (SK-MEL-28) was 27.4 µM (inactive). For the same molecule, the GI50 (SK-MEL-2) was 31 µM (inactive), the GI50 (SK-MEL-5) was 15.3 µM (inactive) and the GI50 (SK-OV-3) was 42.3 µM (inactive). The GI50 (SN12C) was 38.5 µM (inactive), the GI50 (SNB-19) was 46.2 µM (inactive) and the GI50 (SNB-75) was 19.1 µM (inactive). The GI50 (SR) was 37.8 µM (inactive), the GI50 (SW-620) was 48.5 µM (inactive) and the GI50 (T47D) was 25.9 µM (inactive). For the same molecule, the GI50 (TK-10) was 41.4 µM (inactive), the GI50 (U-251) was 39.3 µM (inactive) and the GI50 (UACC-257) was 22.7 µM (inactive). The GI50 (UACC-62) was 29.4 µM (inactive) and the GI50 (UO-31) was 29.2 µM (inactive).
